Results from ChEMBL document CHEMBL2331379, “Synthesis of derivatives of methyl rosmarinate and their inhibitory activities against matrix metalloproteinase-1 (MMP-1)” (Eur J Med Chem, 2013).

What was measured:
Interstitial collagenase = molecular target: T1, Interstitial collagenase (Homo sapiens, UniProt P03956); assay: Inhibition of human recombinant MMP1 catalytic domain using Dnp-Pro-beta-cyclohexyl-Ala-Gly-Cys(Me)-His-Lys-(Nma)-NH2 as substrate preincubated with enzyme for 30 mins prior to substrate addition monitored for 60 mins by fluorometric assay
T1 sequence (P03956 whole entry): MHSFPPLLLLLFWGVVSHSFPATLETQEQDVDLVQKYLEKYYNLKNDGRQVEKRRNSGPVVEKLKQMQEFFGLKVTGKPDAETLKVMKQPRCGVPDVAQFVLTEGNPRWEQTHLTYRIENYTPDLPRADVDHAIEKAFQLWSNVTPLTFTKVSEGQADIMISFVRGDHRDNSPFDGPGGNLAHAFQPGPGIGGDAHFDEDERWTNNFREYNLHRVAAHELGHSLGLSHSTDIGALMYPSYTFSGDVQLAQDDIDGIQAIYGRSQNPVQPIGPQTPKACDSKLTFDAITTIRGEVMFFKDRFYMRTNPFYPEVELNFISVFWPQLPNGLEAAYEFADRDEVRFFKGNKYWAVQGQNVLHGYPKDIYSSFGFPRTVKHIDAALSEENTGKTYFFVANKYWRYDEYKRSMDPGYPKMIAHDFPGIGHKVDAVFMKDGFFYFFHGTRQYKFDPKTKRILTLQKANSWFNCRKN

[1] = molecular target: Matrix metalloproteinase-9 (Homo sapiens, UniProt P14780); assay: Inhibition of MMP9 (unknown origin)
Sequence of Matrix metalloproteinase-9 (P14780 whole entry): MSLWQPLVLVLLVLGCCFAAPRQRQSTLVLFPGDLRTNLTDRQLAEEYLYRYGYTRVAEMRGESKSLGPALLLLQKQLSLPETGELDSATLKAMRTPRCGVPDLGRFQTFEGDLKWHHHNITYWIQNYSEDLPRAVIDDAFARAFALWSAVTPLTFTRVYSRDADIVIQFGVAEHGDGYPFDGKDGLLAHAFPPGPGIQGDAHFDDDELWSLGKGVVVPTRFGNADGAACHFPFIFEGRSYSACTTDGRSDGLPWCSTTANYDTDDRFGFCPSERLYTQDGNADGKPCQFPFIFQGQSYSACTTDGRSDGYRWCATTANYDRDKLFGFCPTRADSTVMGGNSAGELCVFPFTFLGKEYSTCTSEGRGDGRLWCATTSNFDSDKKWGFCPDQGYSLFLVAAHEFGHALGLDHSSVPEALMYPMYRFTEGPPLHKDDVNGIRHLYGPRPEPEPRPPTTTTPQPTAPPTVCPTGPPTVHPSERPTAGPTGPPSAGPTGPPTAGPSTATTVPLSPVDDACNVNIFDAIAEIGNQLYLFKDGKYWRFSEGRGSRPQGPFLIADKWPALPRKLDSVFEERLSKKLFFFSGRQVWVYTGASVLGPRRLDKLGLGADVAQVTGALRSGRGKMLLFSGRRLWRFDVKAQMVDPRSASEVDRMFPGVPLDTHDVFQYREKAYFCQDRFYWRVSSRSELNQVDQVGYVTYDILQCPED

Stromelysin-1 = Stromelysin-1 (Homo sapiens, UniProt P08254); assay: Inhibition of MMP3 (unknown origin)
Sequence of Stromelysin-1 (P08254 whole entry): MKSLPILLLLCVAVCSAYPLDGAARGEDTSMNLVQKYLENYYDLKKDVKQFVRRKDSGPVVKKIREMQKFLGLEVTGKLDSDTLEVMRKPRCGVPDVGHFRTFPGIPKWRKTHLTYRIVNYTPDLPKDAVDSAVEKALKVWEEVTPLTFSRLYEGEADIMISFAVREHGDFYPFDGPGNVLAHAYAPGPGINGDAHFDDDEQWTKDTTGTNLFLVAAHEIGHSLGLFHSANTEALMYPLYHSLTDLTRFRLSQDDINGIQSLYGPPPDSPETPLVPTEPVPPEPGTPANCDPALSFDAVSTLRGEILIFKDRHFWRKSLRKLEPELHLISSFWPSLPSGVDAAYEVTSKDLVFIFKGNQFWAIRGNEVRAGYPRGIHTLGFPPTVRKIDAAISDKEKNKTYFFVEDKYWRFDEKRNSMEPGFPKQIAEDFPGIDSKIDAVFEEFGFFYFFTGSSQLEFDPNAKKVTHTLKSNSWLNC

[2] = molecular target: 72 kDa type IV collagenase (Homo sapiens, UniProt P08253); assay: Inhibition of MMP2 (unknown origin)
Sequence of 72 kDa type IV collagenase (P08253 whole entry): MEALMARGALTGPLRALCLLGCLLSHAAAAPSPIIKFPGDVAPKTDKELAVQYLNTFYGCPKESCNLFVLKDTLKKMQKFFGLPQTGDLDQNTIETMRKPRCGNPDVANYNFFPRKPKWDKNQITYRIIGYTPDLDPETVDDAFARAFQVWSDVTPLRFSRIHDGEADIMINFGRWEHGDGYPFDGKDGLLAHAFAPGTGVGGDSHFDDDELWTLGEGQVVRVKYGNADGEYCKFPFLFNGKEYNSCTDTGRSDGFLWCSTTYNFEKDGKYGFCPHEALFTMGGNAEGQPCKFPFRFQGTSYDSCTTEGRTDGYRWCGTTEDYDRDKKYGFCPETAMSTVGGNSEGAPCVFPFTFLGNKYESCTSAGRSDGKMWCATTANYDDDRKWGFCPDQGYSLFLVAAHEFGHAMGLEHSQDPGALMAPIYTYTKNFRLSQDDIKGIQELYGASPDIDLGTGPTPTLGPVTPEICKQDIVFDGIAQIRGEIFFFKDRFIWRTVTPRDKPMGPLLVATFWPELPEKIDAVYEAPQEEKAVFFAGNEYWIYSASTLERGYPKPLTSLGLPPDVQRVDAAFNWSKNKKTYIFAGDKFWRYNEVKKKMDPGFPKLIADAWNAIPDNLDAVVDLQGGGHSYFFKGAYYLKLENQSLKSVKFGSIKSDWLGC

Collagenase 3 = Collagenase 3 (Homo sapiens, UniProt P45452); assay: Inhibition of MMP13 (unknown origin)
[3] = molecular target: Macrophage metalloelastase (Homo sapiens, UniProt P39900); assay: Inhibition of MMP12 (unknown origin)
Sequence of Macrophage metalloelastase (P39900 whole entry): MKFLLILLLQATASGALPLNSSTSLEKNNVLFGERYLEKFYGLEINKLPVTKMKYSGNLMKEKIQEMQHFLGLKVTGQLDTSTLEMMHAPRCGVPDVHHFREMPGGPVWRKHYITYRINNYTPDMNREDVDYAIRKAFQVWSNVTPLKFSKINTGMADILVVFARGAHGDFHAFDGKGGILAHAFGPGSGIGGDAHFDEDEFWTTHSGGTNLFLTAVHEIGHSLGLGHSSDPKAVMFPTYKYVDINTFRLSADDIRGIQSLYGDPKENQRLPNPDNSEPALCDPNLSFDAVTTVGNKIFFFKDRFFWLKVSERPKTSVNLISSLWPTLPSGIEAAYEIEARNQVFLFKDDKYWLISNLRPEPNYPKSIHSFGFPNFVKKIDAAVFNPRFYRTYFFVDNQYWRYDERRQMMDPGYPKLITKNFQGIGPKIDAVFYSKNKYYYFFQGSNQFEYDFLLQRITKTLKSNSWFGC

SMILES	IC50 (Interstitial collagenase) [µM]	further results
COc1ccc(CC(OC(=O)/C=C/c2ccc(C(F)(F)F)cc2)C(=O)O)cc1OC (stereo not given)	38.9	–
COc1ccc(CC(OC(=O)/C=C/c2ccccc2)C(=O)O)cc1OC (stereo not given)	53.7	–
COc1ccc(CC(OC(=O)/C=C/c2ccc(C)cc2)C(=O)O)cc1OC (stereo not given)	> 100	–
COc1ccc(CC(OC(=O)/C=C/c2ccc(F)cc2)C(=O)O)cc1OC (stereo not given)	41.7	–
COc1ccc(CC(OC(=O)/C=C/c2ccc(Cl)cc2)C(=O)O)cc1OC (stereo not given)	42.6	–
COc1ccc(CC(OC(=O)/C=C/c2ccc(Br)cc2)C(=O)O)cc1OC (stereo not given)	10.7	–
COc1ccc(CC(OC(=O)/C=C/c2ccccc2F)C(=O)O)cc1OC (stereo not given)	34.7	–
COc1ccc(CC(OC(=O)/C=C/c2ccc([N+](=O)[O-])cc2)C(=O)O)cc1OC (stereo not given)	38.5	–
COc1ccc(CC(OC(=O)/C=C/c2ccc(-c3ccccc3)cc2)C(=O)O)cc1OC (stereo not given)	8.6	–
COc1ccc(CC(OC(=O)/C=C/c2ccc(OCc3ccccc3)cc2)C(=O)O)cc1OC (stereo not given)	8.9	–
COc1ccc(/C=C/C(=O)OC(Cc2ccc(OC)c(OC)c2)C(=O)O)cc1 (stereo not given)	> 100	–
COc1ccc(CC(OC(=O)/C=C/c2ccc(O)c(O)c2)C(=O)O)cc1OC (stereo not given)	13.7	–
COc1ccc(/C=C/C(=O)OC(Cc2ccc(OC)c(OC)c2)C(=O)O)cc1OC (stereo not given)	> 100	–
COc1ccc(CC(OC(=O)/C=C/c2ccc(OCc3ccccc3)c(OCc3ccccc3)c2)C(=O)O)cc1OC (stereo not given)	2.5	–
COc1ccc(CC(OC(=O)/C=C/c2ccc3ccccc3c2)C(=O)O)cc1OC (stereo not given)	> 100	–
COc1ccc(CC(OC(=O)/C=C/c2ccc3c(c2)OCC3)C(=O)O)cc1OC (stereo not given)	> 100	–
COc1ccc(CC(OC(=O)/C=C/c2ccc(Br)cc2)C(=O)NO)cc1OC (stereo not given)	7.6	–
COc1ccc(CC(OC(=O)/C=C/c2ccc(-c3ccccc3)cc2)C(=O)NO)cc1OC (stereo not given)	5.5	–
COc1ccc(CC(OC(=O)/C=C/c2ccc(OCc3ccccc3)cc2)C(=O)NO)cc1OC (stereo not given)	3.6	–
COc1ccc(CC(OC(=O)/C=C/c2ccc(OCc3ccccc3)c(OCc3ccccc3)c2)C(=O)NO)cc1OC (stereo not given)	4.2	–
COc1ccc(CC(OC(=O)/C=C/c2ccc3ccccc3c2)C(=O)NO)cc1OC (stereo not given)	6.8	–
COc1ccc(CC(OC(=O)/C=C/c2ccc3c(c2)OCC3)C(=O)NO)cc1OC (stereo not given)	10.6	–
C=CCOC(=O)C(Cc1ccc(OC)c(OC)c1)OC(=O)/C=C/c1ccc(C(F)(F)F)cc1 (stereo not given)	> 100	–
C=CCOC(=O)C(Cc1ccc(OC)c(OC)c1)OC(=O)/C=C/c1ccc(Cl)cc1 (stereo not given)	> 100	–
C=CCOC(=O)C(Cc1ccc(OC)c(OC)c1)OC(=O)/C=C/c1ccc(Br)cc1 (stereo not given)	> 100	–
C=CCOC(=O)C(Cc1ccc(OC)c(OC)c1)OC(=O)/C=C/c1ccc([N+](=O)[O-])cc1 (stereo not given)	> 100	–
C=CCOC(=O)C(Cc1ccc(OC)c(OC)c1)OC(=O)/C=C/c1ccc(OCc2ccccc2)cc1 (stereo not given)	> 100	–
COc1ccc(C[C@@H](OC(=O)/C=C/c2ccc(OCc3ccccc3)c(OCc3ccccc3)c2)C(=O)O)cc1OC	0.4	IC50 [1]: 6.7 µM; IC50 (Stromelysin-1): 4 µM; IC50 [2]: 3.2 µM; IC50 (Collagenase 3): 4.5 µM; IC50 [3]: 2.1 µM
COc1ccc(C[C@H](OC(=O)/C=C/c2ccc(OCc3ccccc3)c(OCc3ccccc3)c2)C(=O)O)cc1OC	0.8	IC50 [1]: 6 µM; IC50 (Stromelysin-1): 3.4 µM; IC50 [2]: 3 µM; IC50 (Collagenase 3): 5.4 µM; IC50 [3]: 2.3 µM
O=C(/C=C/c1ccc(O)c(O)c1)O[C@H](Cc1ccc(O)c(O)c1)C(=O)O [ROSMARINIC ACID]	5.6	–
